These results are taken from PMC8041284, “Tunable Methacrylamides for Covalent Ligand Directed Release Chemistry” (Journal of the American Chemical Society, 2021).

Broadly, the inhibition is the relative decrease from the control value, in per cent.

The test deals with BTK (Homo sapiens, UniProt Q06187). Description: biochemical.
Setting [1] is: read-out: BTK inhibition (%), 0.75 uM BTK, […] probe 3l, 15 min preincubation.

Structures are written as SMILES. Read-outs that look alike come from different tables or passages of the source.

Sequence of BTK (Q06187 402-655 limits assumed): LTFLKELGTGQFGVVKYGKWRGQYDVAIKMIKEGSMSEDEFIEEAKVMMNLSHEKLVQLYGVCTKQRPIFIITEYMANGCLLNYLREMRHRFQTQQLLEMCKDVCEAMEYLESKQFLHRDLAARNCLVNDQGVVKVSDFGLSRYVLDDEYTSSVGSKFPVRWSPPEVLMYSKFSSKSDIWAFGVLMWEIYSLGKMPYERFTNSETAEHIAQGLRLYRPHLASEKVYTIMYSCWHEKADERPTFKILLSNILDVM

As to `CC[C@@H]1C(=O)N(C)c2cnc(Nc3ccc(C(=O)NC4CCC(N5CCN(CC6CC6)CC5)CC4)cc3OC)nc2N1C(C)C` (stereo partly shown) [PCM-0095279], the inhibition at 10 µM under setting [1] was -14.5%.
On to `COc1ccc(COc2cc3oc(=O)c4cc(C(C)O)ccc4c3cc2OC)cc1` (stereo not shown) [PCM-0095280], for which the inhibition at 10 µM under setting [1] worked out at 15.2%.
Take `CC(C)C(=O)Oc1ccc(CO)cc1[C@H](CCN(C(C)C)C(C)C)c1ccccc1` [PCM-0095281]: the inhibition at 10 µM under setting [1] was -0.8%.
On to `CCC[C@H](NC(=O)/C(C#N)=C/c1cccc(Br)n1)c1ccccc1` [PCM-0095282], for which, under setting [1], the inhibition at 10 µM amounted to 24.8%.
On the same count and under the same terms, then `CC(C)[C@H](C(=O)Nc1ccc(C(=O)NO)cc1)c1ccccc1` [PCM-0095283], with 17.1%; and `Nc1cc(C(F)(F)F)c(-c2cc(N3CCOCC3)nc(N3CCOCC3)n2)cn1` [PCM-0095286], with -4.1%.
Turning to `O=C(O)c1ccc2c(c1)nc(Nc1cccc(Cl)c1)c1ccncc12` [PCM-0095287], the inhibition at 10 µM under setting [1] came out at 13.1%.
Consider `O=C1c2cccc(O)c2C(=O)c2c(O)cc(CO)cc21` [PCM-0095288], for which the inhibition at 10 µM under setting [1] stood at 16.3%.
The same measure, in the same setting: then `O=C1c2ccccc2C(=O)c2c1ccc(O)c2O` [PCM-0095289], with 49.8%; and `COc1ccc(C[C@@H]2c3cc(OC)c(OC)cc3CC[N@+]2(C)CCC(=O)OCCCCCOC(=O)CC[N@@+]2(C)CCc3cc(OC)c(OC)cc3[C@H]2Cc2ccc(OC)c(OC)c2)cc1OC` [PCM-0095290], with -8.6%.
On the same count and under the same terms, the result for `COc1ccc(Cn2ccc3ccc(C(=O)NO)cc32)cc1` [PCM-0095291] reads 33.5%.
Still for that read-out and setting: then `CCCCc1oc2ccc(NS(C)(=O)=O)cc2c1C(=O)c1ccc(OCCCN(CCCC)CCCC)cc1` [PCM-0095292], with 62.3%; and `CCCCOc1c(C(=O)c2c(F)cc(C)cc2F)cnc2n[nH]cc12` [PCM-0095294], with -2.1%.
With `CCOCC(O)COc1ccc(NC(=O)CC[S+](C)C)cc1` (stereo not shown) [PCM-0095295], the inhibition at 10 µM under setting [1] was 0%.
As for `CCOC(=O)c1c(CSc2ccccc2)n(C)c2cc(Br)c(O)c(CN(C)C)c12` [PCM-0095296], under setting [1], the inhibition at 10 µM is 10.1%.
With `OC[C@H]1OC(O)[C@H](O)[C@@H](O)[C@@H]1O` (stereo partly shown) [PCM-0095297], the inhibition at 10 µM under setting [1] is -10.1%.
For `CC(=O)O[C@@]12CO[C@@H]1C[C@H](O)[C@@]1(C)C(=O)[C@H](O)C3=C(C)[C@@H](O)C[C@@](O)([C@@H](OC(=O)c4ccccc4)[C@H]21)C3(C)C` [PCM-0095302], under setting [1], the inhibition at 10 µM amounted to 9.3%.
The same measure, in the same setting: then `CCCCCCCCCCCCCCCC(=O)OC[C@H](O)[C@H]1OC(=O)C(O)=C1O` [PCM-0095304], with -34.2%; and `CC(C)(O)CC[C@@H](O)[C@](C)(O)[C@H]1CC[C@@]2(O)C3=CC(=O)[C@@H]4C[C@@H](O)[C@@H](O)C[C@]4(C)[C@H]3CC[C@]12C` [PCM-0095305], with 6.2%; and `C1=C2CCCN[C@H]2[C@@H]2C[C@H]1[C@H]1CCCCN1C2` [PCM-0095306], with -2.6%.
In the case of `COc1ccc([C@H]2CNC(=O)C2)cc1OC1CCCC1` [PCM-0095307], the inhibition at 10 µM under setting [1] was determined as 7%.
Same read-out and setting: the result for `Cc1c(-c2ccc(O)cc2)n(Cc2ccc(OCCN3CCCCCC3)cc2)c2ccc(O)cc12` [PCM-0095308] reads 84%.
Take `N[C@@H](CSCCCO)C(=O)O` [PCM-0095309]: the inhibition at 10 µM under setting [1] was found to be 17.9%.
Still for that read-out and setting: the result for `O=C(Nc1c(Cl)cncc1Cl)c1ccc(OC(F)F)c(OCC2CC2)c1` [PCM-0095310] reads 3.1%; that for `Clc1ccc(C(Cn2ccnc2)OCc2ccc(Sc3ccccc3)cc2)c(Cl)c1` (stereo not shown) [PCM-0095311], 100%; that for `Cc1cc(C(=O)NOCCO)c(Nc2ccc(I)cc2F)n(C)c1=O` [PCM-0095312], 2.1%.
The same measure, in the same setting: then `CC(C)c1noc(N2CCC(COc3ccc(-c4ccc(S(C)(=O)=O)cc4)nc3)CC2)n1` [PCM-0095313], with -14%; and `CC(/C=C1\SC(=S)N(CC(=O)O)C1=O)=C\c1ccccc1` [PCM-0095314], with -47.7%.
The same measure, in the same setting: then `CCOc1cc2ncc(C#N)c(Nc3ccc(OCc4ccccn4)c(Cl)c3)c2cc1NC(=O)/C=C/CN(C)C` [PCM-0095315], with 80%; and `Cc1c(C(=O)Nc2ccc(N3C[C@@H](C)O[C@@H](C)C3)nc2)cccc1-c1ccc(OC(F)(F)F)cc1` [PCM-0095316], with 6.2%.
`C=C[C@@]1(C)CC(=O)[C@]2(O)[C@@]3(C)[C@@H](O)CCC(C)(C)[C@@H]3[C@H](O)[C@H](OC(C)=O)[C@@]2(C)O1` [PCM-0095317]: under setting [1], the inhibition at 10 µM was -17.1%.
On the same count and under the same terms, the result for `Oc1ccc([C@H]2COc3cc(O)ccc3C2)cc1` [PCM-0095319] reads -6.2%; that for `CN1[C@@H]2CC(O)C[C@H]1[C@@H]1O[C@@H]12` (stereo partly shown) [PCM-0095322], -2.3%.
Still for that read-out and setting: then `O=C(O)CCC1CCC(c2cc(F)ccc2F)(S(=O)(=O)c2ccc(Cl)cc2)CC1` (stereo not shown) [PCM-0095325], with -15.2%.
The same measure, in the same setting: then `CNC(=O)Nc1ccc(-c2nc(N3CC4CCC(C3)O4)c3cnn(C4CCC5(CC4)OCCO5)c3n2)cc1` [PCM-0095327], with 15.9%.
In the case of `Cc1ccc(O)c([C@H](CCN(C(C)C)C(C)C)c2ccccc2)c1` [PCM-0095328], under setting [1], the inhibition at 10 µM stood at 1.6%.
On to `CCC(C)(Oc1ccc(C2(c3ccc(OC(C)(CC)C(=O)O)cc3)CCCCC2)cc1)C(=O)O` (stereo not shown) [PCM-0095329], for which the inhibition at 10 µM under setting [1] stood at 15.6%.
The same measure, in the same setting: then `O=C(Nc1cccnc1)N1CCC(Cc2cccc(Oc3ccc(C(F)(F)F)cn3)c2)CC1` [PCM-0095330], with -4.8%.
The same measure, in the same setting: the result for `Cc1[nH]nc2ccc(-c3cncc(OC[C@@H](N)Cc4ccccc4)c3)cc12` [PCM-0095333] reads -17.2%; that for `O=C(O)C1(Cc2cccc(Nc3nccs3)n2)CCC(Oc2cccc(Cl)c2F)CC1` (stereo not shown) [PCM-0095334], 102%.
Still for that read-out and setting: then `O=C(c1ccc(Nc2nccc(-c3cc4ccccc4s3)n2)cc1)N1CCC(N2CCCC2)CC1` [PCM-0095335], with 86.2%.
Consider `CCC(CC)CC1(C(=O)Nc2ccccc2SC(=O)C(C)C)CCCCC1` [PCM-0095336], for which the inhibition at 10 µM under setting [1] is 6.2%.
Still for that read-out and setting: then `O=C(Nc1ccccc1Br)N[C@@H]1CCN(c2ccc(C(F)(F)F)cn2)C1` [PCM-0095337], with -17.1%.
With `CN(C[C@@H]1COCCO1)S(=O)(=O)Nc1ccc2ccc3ncc(-c4cnn(C)c4)cc3c(=O)c2c1` [PCM-0095338], the inhibition at 10 µM under setting [1] stood at 33.1%.
Still for that read-out and setting: the result for `Cc1ccc(Sc2cncc3sc(C(N)=O)cc23)cc1` [PCM-0095339] reads -3.9%; that for `O=C(O)CCCCC(CCSCc1ccccc1)SCc1ccccc1` (stereo not shown) [PCM-0095341], -39.7%.
On the same count and under the same terms, the result for `Cn1cc(/C=C2\C(=O)Nc3cccnc32)c2ccccc21` [PCM-0095342] reads 22.8%; that for `Cc1cnc(-c2cc(N3CCN(C(=O)CCS(C)(=O)=O)CC3)ncc2Cl)c(C)c1` [PCM-0095343], 7.8%.
On to `COc1cc(NC(=O)c2ccccn2)ccc1Cl` [PCM-0095344], for which the inhibition at 10 µM under setting [1] came out at 15.6%.
Regarding `O=C(NCC1CCOCC1)c1cnc(Nc2ccc(Cl)cc2Cl)nc1C(F)(F)F` [PCM-0095345], the inhibition at 10 µM (read-out: BTK inhibition (%)) is -9.3%.
As to `O=S(=O)(c1ccccc1)c1cnc2c(N3CCNCC3)cccc2c1` [PCM-0095346], under setting [1], the inhibition at 10 µM was 3.1%.
On to `CN(C)c1ccc(C(=O)NCCCCCCC(=O)NO)cc1` [PCM-0095347], for which the inhibition at 10 µM under setting [1] amounted to 4.7%.
